Assay results reported in ChEMBL document CHEMBL3885861, “Open TG-GATES”.

Organism: Rattus norvegicus
Assay: Open TG-GATES - Regimen: Single
Format: toxicity, organism-based, Sprague-Dawley
Design: regimen Single, gender Male, age 6 weeks
Conditions: in vivo, po, 30 mg/kg, route gavage, dose level Low; for APTT / Bas / Eos / Fbg / Hb / Ht / Lym / MCH / MCHC / MCV / Mono / Neu / PT / Plat / RBC / Ret / WBC: tissue Blood; for KIDNEY_L / KIDNEY_R / KIDNEY_TOTAL: tissue Kidney; for LIVER: tissue Liver; for A/G / ALP / ALT / AST / BUN / CRE / Ca / Cl / DBIL / GLC / IP / K / LDH / Na / PL / RALB / TBIL / TC / TG / TP / gamma-GTP: tissue Plasma

## Nc1ccc(Cc2ccc(N)cc2)cc1
3 h
  TERMINAL_BW: 209.5 g
  APTT: 14.3 s
  Bas: 0%
  Eos: 0.6%
  Fbg: 262.8 mg/dL
  Hb: 13 g/dL
  Ht: 38%
  Lym: 74.2%
  MCH: 21 pg
  MCHC: 34.1%
  MCV: 61.4 fL
  Mono: 3.6%
  Neu: 20.8%
  PT: 12 s
  Plat: 147.2 x10_4/uL
  RBC: 619 x10_4/ul
  Ret: 7.8%
  WBC: 100.2 x10_2/uL
  KIDNEY_L: 0.9 g
  KIDNEY_R: 0.9 g
  KIDNEY_TOTAL: 1.8 g
  LIVER: 8.8 g
  A/G: 0.8
  ALP: 1545.4 IU/L
  ALT: 47.4 IU/L
  AST: 81.6 IU/L
  BUN: 11 mg/dL
  CRE: 0.2 mg/dL
  Ca: 10.9 mg/dL
  Cl: 105 meq/L
  DBIL: 0.022 mg/dL
  GLC: 172 mg/dL
  IP: 9.1 mg/dL
  K: 3.8 meq/L
  LDH: 65.4 IU/L
  Na: 141.2 meq/L
  PL: 138.6 mg/dL
  RALB: 2.6 g/dL
  TBIL: 0.062 mg/dL
  TC: 73 mg/dL
  TG: 79.4 mg/dL
  TP: 5.6 g/dL
  gamma-GTP: 1.4 IU/L
6 h
  TERMINAL_BW: 206.3 g
  APTT: 14.7 s
  Bas: 0%
  Eos: 0.6%
  Fbg: 274.6 mg/dL
  Hb: 13.2 g/dL
  Ht: 38.9%
  Lym: 70.8%
  MCH: 21.3 pg
  MCHC: 34%
  MCV: 62.7 fL
  Mono: 2.2%
  Neu: 25.2%
  PT: 11.5 s
  Plat: 141.7 x10_4/uL
  RBC: 621.2 x10_4/ul
  Ret: 8.2%
  WBC: 77.7 x10_2/uL
  KIDNEY_L: 0.9 g
  KIDNEY_R: 0.9 g
  KIDNEY_TOTAL: 1.8 g
  LIVER: 8.6 g
  A/G: 0.8
  ALP: 1547 IU/L
  ALT: 37.2 IU/L
  AST: 74.2 IU/L
  BUN: 7.4 mg/dL
  CRE: 0.2 mg/dL
  Ca: 10.7 mg/dL
  Cl: 107.2 meq/L
  DBIL: 0.022 mg/dL
  GLC: 167 mg/dL
  IP: 9.6 mg/dL
  K: 4 meq/L
  LDH: 52.4 IU/L
  Na: 141.8 meq/L
  PL: 146.2 mg/dL
  RALB: 2.5 g/dL
  TBIL: 0.074 mg/dL
  TC: 81 mg/dL
  TG: 61.2 mg/dL
  TP: 5.6 g/dL
  gamma-GTP: 1.2 IU/L
9 h
  TERMINAL_BW: 205 g
  APTT: 13.5 s
  Bas: 0%
  Eos: 0.8%
  Fbg: 260 mg/dL
  Hb: 12.8 g/dL
  Ht: 37.2%
  Lym: 74%
  MCH: 21.3 pg
  MCHC: 34.2%
  MCV: 62.1 fL
  Mono: 2.4%
  Neu: 22%
  PT: 11.8 s
  Plat: 138.8 x10_4/uL
  RBC: 600 x10_4/ul
  Ret: 8.6%
  WBC: 106 x10_2/uL
  KIDNEY_L: 0.9 g
  KIDNEY_R: 0.9 g
  KIDNEY_TOTAL: 1.8 g
  LIVER: 7.6 g
  A/G: 0.8
  ALP: 1400.6 IU/L
  ALT: 34.4 IU/L
  AST: 75.4 IU/L
  BUN: 8.8 mg/dL
  CRE: 0.2 mg/dL
  Ca: 10.5 mg/dL
  Cl: 106.8 meq/L
  DBIL: 0.03 mg/dL
  GLC: 167.6 mg/dL
  IP: 11.3 mg/dL
  K: 4.1 meq/L
  LDH: 53.8 IU/L
  Na: 143.4 meq/L
  PL: 134.6 mg/dL
  RALB: 2.5 g/dL
  TBIL: 0.094 mg/dL
  TC: 76 mg/dL
  TG: 50.2 mg/dL
  TP: 5.4 g/dL
  gamma-GTP: 1.6 IU/L
24 h
  TERMINAL_BW: 219.9 g
  APTT: 13.8 s
  Bas: 0%
  Eos: 1%
  Fbg: 278.6 mg/dL
  Hb: 13.4 g/dL
  Ht: 38.6%
  Lym: 72.2%
  MCH: 20.9 pg
  MCHC: 34.7%
  MCV: 60.2 fL
  Mono: 2.6%
  Neu: 23.6%
  PT: 11.6 s
  Plat: 137.1 x10_4/uL
  RBC: 640.4 x10_4/ul
  Ret: 6.5%
  WBC: 93 x10_2/uL
  KIDNEY_L: 0.9 g
  KIDNEY_R: 1 g
  KIDNEY_TOTAL: 1.9 g
  LIVER: 10.1 g
  A/G: 0.9
  ALP: 1877.6 IU/L
  ALT: 44 IU/L
  AST: 82 IU/L
  BUN: 14.8 mg/dL
  CRE: 0.2 mg/dL
  Ca: 11.1 mg/dL
  Cl: 105.6 meq/L
  DBIL: 0.02 mg/dL
  GLC: 168.4 mg/dL
  IP: 8 mg/dL
  K: 4 meq/L
  LDH: 53.6 IU/L
  Na: 143.4 meq/L
  PL: 160.2 mg/dL
  RALB: 2.7 g/dL
  TBIL: 0.046 mg/dL
  TC: 92.8 mg/dL
  TG: 91.6 mg/dL
  TP: 5.7 g/dL
  gamma-GTP: 1 IU/L
